The term MIC denotes the lowest concentration that inhibits growth of the organism. Lower therefore signals greater potency.

This note sets out measurements from US12070467B2, “Method of treating ciliated tissue using CSA micelles” (Brigham Young University, priority 2018, dated 2024).

The test system of assay [1] is S. aureus ATCC 25923 biofilm. The experiment in a line: Minimum biofilm eradication concentration (MBEC). It is filed as cell-based, Staphylococcus aureus. The following applies: 48 h biofilm, 24 h treatment. The protocol:
(§1) Staphylococcus aureus (ATCC 25923) and Pseudomonas aeruginosa (ATCC 47085 (PA01)) were grown from fresh colonies in trypticase soy broth (TSB) and incubated overnight at 37° C. Fungal cultures, Candida albicans (ATCC 90028) and Candida auris (CDC 0382, 0384, 0387, and 0389), were grown overnight in sabouraud dextrose broth (SDB) or Roswell Park Memorial Institute medium (RPMI). Cultures of bacteria and fungi were centrifuged, and pellets were washed three times with phosphate buffered saline (PBS) and further resuspended in fresh PBS. Bacterial cultures were diluted in TSB and fungal cultures were diluted in SDB or RPMI to […] or 10^6 CFU/mL (optical density (OD) readings at 600 nm).
(§2) Inocula (10^6 CFU/mL) of bacterial and fungal strains (P. aeruginosa, S. aureus, C. albicans, and C. auris) were incubated at 37° C. for 48 h in 1 mL of TSB or SDB in 96-well plates. Following incubation, the growth medium was gently removed, and wells were washed three times with sterile PBS. […] Wells, including well edges, were scraped thoroughly with a plastic spatula. Well contents were removed in 1 mL of neutralizing broth (Dey-Engley, Sigma-Aldrich) and placed in a sonicating water bath (Fisher Scientific FS60, 42 kHz, 100 W, Pittsburgh, PA, USA) to disrupt biofilms. […] After 24 h or 48 h of incubation at 37° C., colonies were counted and MBECs were determined. […]

Assay [2] concerns C. auris CDC 384. The experiment in a line: Minimum inhibitory concentration (MIC), broth microdilution. In kind it is cell-based, Candida auris. The following applies: 37° C., 18-20 h. The protocol:
as §1
(§3) Minimum inhibitory concentrations (MICs) were measured using the broth microdilution protocol described by the Clinical and Laboratory Standards Institute. […] Aliquots (100 μL) of a prepared inoculum (10^6 CFU/mL for bacteria and […] CFU/mL for fungi) were added, and plates were incubated at 37° C. for 18-20 h. Bacterial or fungal growth was visually observed to determine the MICs. Negative and positive controls were included for each set of MIC measurements. For studies with pluronic, the surfactant was added at 4% and 5% to the initial inocula in each experiment. Measurements were performed in triplicate for all susceptibility tests.

Assay [3] concerns C. auris CDC 382. The assay is described as above. It is filed as cell-based, Candida auris. Particulars: 37° C., 18-20 h. The protocol:
as §1, §3

In assay [4] the test system is C. auris CDC 389. The assay is described as above. In kind it is cell-based, Candida auris. Particulars: 37° C., 18-20 h. The protocol:
as §1, §3

For assay [5], the system named is C. auris CDC 387. The assay is described as above. The following applies: 37° C., 18-20 h. It is filed as cell-based, Candida auris. The protocol: as §1, §3
For assay [6], the system named is C. albicans (ATCC 90028) and C. auris (CDC 384) in trachea and lung explants. The experiment in a line: Ex vivo antifungal efficacy in porcine trachea and lung explants (FIGS. 7A, 7B). In kind it is cell-based, Candida albicans, Candida auris. Particulars: 24 h. The protocol:
Using 5 mm^3 explant cubes of porcine trachea and lung, ex vivo antifungal efficacy experiments were conducted. Cubes were dissected using a sterile razor blade form the ventral surface of the left caudal lobe of three sets of porcine lungs. After trimming excess tissues away from the explants to produce uniform of size (5 mm), explants were incubated at 37° C. in DMEM/RPMI inoculated with 10^6 CFU/explant of C. auris (CDC 0384) or C. albicans (ATCC 90028) in a 48-well plate. […] Treated explants were incubated for 24 h at 37° C. After incubation, tissues were suspended in 250 μL of neutralizing broth and vortex on the highest setting for 4 min. Samples were then serially diluted in PBS, plated on 5% sheep blood TSA plates, and incubated at 37° C. for 48 h.
FIGS. 7A and 7B are bar graphs comparing the antifungal activity of CSA compositions with and without micelles on fungi, and against a control without any CSA. White bars shown remaining C. albicans (ATCC 90028); black bars show remaining C. auris (CDC 384).

Assay [7] relates to C. auris CDC 389 biofilm. In words: Minimum biofilm eradication concentration (MBEC). In kind it is cell-based, Candida auris. The following applies: 48 h biofilm, 24 h treatment. The protocol:
as §1
(§4) Inocula (10^6 CFU/mL) of bacterial and fungal strains (P. aeruginosa, S. aureus, C. albicans, and C. auris) were incubated at 37° C. for 48 h in 1 mL of TSB or SDB in 96-well plates. Following incubation, the growth medium was gently removed, and wells were washed three times with sterile PBS. […] Wells, including well edges, were scraped thoroughly with a plastic spatula. Well contents were removed in 1 mL of neutralizing broth (Dey-Engley, Sigma-Aldrich) and placed in a sonicating water bath (Fisher Scientific FS60, 42 kHz, 100 W, Pittsburgh, PA, USA) to disrupt biofilms. After 15 min, the resulting samples were serially diluted, and bacterial samples were plated on TSA while fungal samples were plated on SDA. After 24 h or 48 h of incubation at 37° C., colonies were counted and MBECs were determined. The minimum biofilm eradication concentration (MBEC) was defined as the lowest concentration of antibiotic that prevented bacterial regrowth.

In assay [8] the test system is C. auris CDC 384 biofilm. The experiment in a line: Minimum biofilm eradication concentration (MBEC). Particulars: 48 h biofilm, 24 h treatment. It is filed as cell-based, Candida auris. The protocol:
as §1, §4

The subject of assay [9] is C. auris CDC 387 biofilm. In words: Minimum biofilm eradication concentration (MBEC). In kind it is cell-based, Candida auris. The following applies: 48 h biofilm, 24 h treatment. The protocol:
as §1, §4

The test system of assay [10] is C. auris CDC 382 biofilm. In words: Minimum biofilm eradication concentration (MBEC). It is filed as cell-based, Candida auris. The following applies: 48 h biofilm, 24 h treatment. The protocol: as §1, §4
Assay [11] concerns C. albicans ATCC 90028. In words: Minimum inhibitory concentration (MIC), broth microdilution. In kind it is cell-based, Candida albicans. Particulars: 37° C., 18-20 h. The protocol:
as §1, §3

Assay [12] concerns C. albicans ATCC 90028 biofilm. In words: Minimum biofilm eradication concentration (MBEC). In kind it is cell-based, Candida albicans. Particulars: 48 h biofilm, 24 h treatment. The protocol:
as §1, §2

For assay [13], the system named is P. aeruginosa (ATCC 47085). The experiment in a line: Kinetics of bactericidal activity (FIG. 4). It is filed as cell-based, Pseudomonas aeruginosa. Particulars: detection limit two logs. The protocol: Cultures were incubated at 37° C. At 5, 15, 30, 60, and 120 min, aliquots were removed from each well and added to neutralizing buffer to ensure that no further antibacterial activity occurred. These samples were then serially diluted and plated on TSA or SDA. Cultures were incubated at 37° C. for 24 h or 48 h, and colonies were counted and recorded.
Detection limit was two logs.

Turning to `CCCCCCCCCCCCNCCC[C@@H](C)[C@H]1CC[C@H]2[C@@H]3[C@H](OCCCN)C[C@@H]4C[C@H](OCCCN)CC[C@]4(C)[C@H]3C[C@H](OCCCN)[C@]12C.Cl.Cl.Cl.Cl` [CSA-131], the MBEC in [1] came out at 100 µg/mL; in assay [7], 48 µg/mL; in [8] it was 48 µg/mL; in assay [9], 64 µg/mL; in [10], 82 µg/mL; in assay [12], 48 µg/mL. For the same molecule, the MIC in assay [2], in [3], in assay [4], in assay [5] and in assay [11] was 0.5 µg/mL in each case. Moreover, the “Decrease of fungal counts in treated explants vs control explants” value was “up to 99%” in [6] (CSA-131 alone); “one and a half to two” in assay [6] (CSA-131 alone, p<0.05 vs controls); “up to 99%” in assay [6] (CSA-131 with pluronic 4%); “one and a half to two” in assay [6] (CSA-131 with pluronic 4%, p<0.05 vs controls); “up to 99%” in [6] (CSA-131 with pluronic 5%); “one and a half to two” in [6] (CSA-131 with pluronic 5%, p<0.05 vs controls). For the same molecule, the “Time for inocula of just over 106 CFU/mL to be reduced to the detection limit” value in assay [13] (CSA-131 100 μg/mL alone) and in [13] (CSA-131 100 μg/mL with pluronic (4%)) was no more than 15 min in each case.
